# Data: PubChem BioAssay (NCI)
#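 Each compound was tested at five concentrations against cells in 96-well plates for 48 hours. The concentration for 50% growth inhibition is given as GI50. TGI is the concentration that stops growth completely.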
# Columns and labels:
# Assay in all cases: NCI-60 cell line screen, 48 h
# [1] = system: 786-0 renal
# [2] = system: A498 renal
# [3] = system: A549 NSCLC
# [4] = system: ACHN renal
# [5] = system: BT-549 breast
# [6] = system: CAKI-1 renal
# [7] = system: CCRF-CEM leukemia
# [8] = system: DU-145 prostate
# [9] = system: EKVX NSCLC
# [10] = system: HCC-2998 colon
# [11] = system: HCT-116 colon
# [12] = system: HCT-15 colon
# [13] = system: HL-60(TB) leukemia
# [14] = system: HOP-62 NSCLC
# [15] = system: HOP-92 NSCLC
# [16] = system: HS 578T breast
# [17] = system: HT29 colon
# [18] = system: IGROV1 ovarian
# [19] = system: K-562 leukemia
# [20] = system: KM12 colon
# [21] = system: LOX IMVI melanoma
# [22] = system: M14 melanoma
# [23] = system: MALME-3M melanoma
# [24] = system: MCF7 breast
# [25] = system: MDA-MB-231 breast
# [26] = system: MDA-MB-435
# [27] = system: MOLT-4 leukemia
# [28] = system: NCI-H226 lung
structure (smiles),measurement,setting,value
COc1ccc(N(C)c2cc(C#N)nc3ccccc23)cc1N,GI50,[1],< 10 nM
same,TGI,[1],> 100000 nM
same,GI50,[2],83400 nM
same,TGI,[2],> 100000 nM
same,GI50,[3],< 10 nM
same,TGI,[3],> 100000 nM
same,GI50,[4],< 10 nM
same,TGI,[4],> 100000 nM
same,GI50,[5],< 10 nM
same,GI50,[6],< 10 nM
same,TGI,[6],> 100000 nM
same,GI50,[7],< 10 nM
same,TGI,[7],> 37100 nM
same,GI50,[8],< 10 nM
same,TGI,[8],> 100000 nM
same,GI50,[9],< 10 nM
same,TGI,[9],> 100000 nM
same,GI50,[10],< 10 nM
same,TGI,[10],131 nM
same,GI50,[11],< 10 nM
same,TGI,[11],1530 nM
same,GI50,[12],< 10 nM
same,GI50,[13],< 10 nM
same,TGI,[13],< 10 nM
same,GI50,[14],< 10 nM
same,TGI,[14],> 100000 nM
same,TGI,[15],> 76200 nM
same,GI50,[16],< 10 nM
same,TGI,[16],> 100000 nM
same,GI50,[17],< 10 nM
same,TGI,[17],< 10 nM
same,GI50,[18],< 10 nM
same,TGI,[18],> 100000 nM
same,GI50,[19],< 10 nM
same,TGI,[19],> 100000 nM
same,GI50,[20],< 10 nM
same,TGI,[20],> 45400 nM
same,GI50,[21],< 10 nM
same,TGI,[21],> 64200 nM
same,GI50,[22],< 10 nM
same,TGI,[22],> 100000 nM
same,GI50,[23],< 10 nM
same,TGI,[23],> 84600 nM
same,GI50,[24],< 10 nM
same,TGI,[24],> 100000 nM
same,GI50,[25],< 10 nM
same,TGI,[25],< 10 nM
same,GI50,[26],< 10 nM
same,TGI,[26],< 10 nM
same,GI50,[27],< 10 nM
same,TGI,[27],> 60600 nM
same,GI50,[28],< 10 nM
